The assay addresses T1, human CaSR (Homo sapiens, UniProt P41180).
T1 construct: expressed in transfected cells; host or cells: 293E cells (EBNA1-expressing HEK293, ATCC No. CRL-10852), transient transfection of hCaSR/pcDNA3.1
T1 sequence (P41180 20-1078): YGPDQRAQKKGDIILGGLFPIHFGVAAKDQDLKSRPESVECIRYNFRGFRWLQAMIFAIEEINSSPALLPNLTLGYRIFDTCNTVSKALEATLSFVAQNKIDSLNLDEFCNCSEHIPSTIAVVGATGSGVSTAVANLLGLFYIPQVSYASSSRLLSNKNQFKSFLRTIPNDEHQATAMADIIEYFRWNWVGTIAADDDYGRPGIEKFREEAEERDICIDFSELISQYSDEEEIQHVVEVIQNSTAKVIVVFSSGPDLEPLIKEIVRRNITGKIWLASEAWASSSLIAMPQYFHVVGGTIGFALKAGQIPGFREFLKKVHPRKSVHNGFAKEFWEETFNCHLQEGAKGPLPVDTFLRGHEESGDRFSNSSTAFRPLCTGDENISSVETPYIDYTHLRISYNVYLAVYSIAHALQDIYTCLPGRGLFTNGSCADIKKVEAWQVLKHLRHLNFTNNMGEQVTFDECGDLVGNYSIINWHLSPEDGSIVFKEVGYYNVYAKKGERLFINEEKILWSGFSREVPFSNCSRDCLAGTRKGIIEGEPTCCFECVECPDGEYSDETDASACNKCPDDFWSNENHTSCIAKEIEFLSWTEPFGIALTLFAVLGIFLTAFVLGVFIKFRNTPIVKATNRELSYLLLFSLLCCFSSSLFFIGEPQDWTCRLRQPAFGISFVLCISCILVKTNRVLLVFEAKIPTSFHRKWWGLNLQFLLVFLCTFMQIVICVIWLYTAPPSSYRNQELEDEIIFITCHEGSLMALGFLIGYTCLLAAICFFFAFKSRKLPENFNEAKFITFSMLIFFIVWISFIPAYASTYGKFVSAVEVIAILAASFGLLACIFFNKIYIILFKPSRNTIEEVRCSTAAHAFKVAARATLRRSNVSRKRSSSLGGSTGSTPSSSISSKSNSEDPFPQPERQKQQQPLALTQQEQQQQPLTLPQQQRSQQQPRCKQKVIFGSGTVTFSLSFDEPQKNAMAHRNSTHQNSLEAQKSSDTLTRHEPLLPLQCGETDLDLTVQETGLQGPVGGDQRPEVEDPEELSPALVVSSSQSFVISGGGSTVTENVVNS
The assay is described as follows: Assessment of CaSR agonistic activity (Ca2+ fluorescence, FLIPR, hCaSR-transfected 293E cells). The note with it: human CaSR-expressing 293E cells, 1.5 mM CaCl2 assay buffer, 3-minute change in fluorescence intensity. In kind it is cell-based. As to the method:
CaSR gene was prepared according to the method described in Example 1 of WO07/55393. The resulting recombinant plasmid was used to generate human CaSR-expressing plasmid hCaSR/pcDNA3.1.
293E cells (EBNA1-expressing IIEK293 cells, ATCC No. CRL-10852) were cultured in DMEM ([…] Glucose-containing Dulbecco's modified Eagle medium, Nacalai Tesque) containing 10% bovine fetal serum in the presence of 250 μg/ml of G418. The cells were seeded on a 10 cm-diameter petri dish at 1.8×10^6 cells/15 ml, and left to stand in a CO2 incubator (5% CO2, 37° C.) for 24 hours. Thereafter, human CaSR expression plasmid hCaSR/pcDNA3.1 was transfected with transfection reagent Mirus Trans IT 293 (Takara Bio). Following static culture in a CO2 incubator for 24 hours, the cells were harvested with 10% bovine fetal serum-containing DMEM and seeded on a poly-D-lysine coat 384 well plate (Falcon) at 15,000 cells/well. Following static culture in a CO2 incubator for 24 hours, the medium was removed and the resultant was added with 50 μl/well of Ca^2+ fluorescent indicator Calcium 4 Assay Kit (Molecular Devices) dissolved in an assay buffer (146 mM NaCl, 5 mM KCl, 1 mM MgSO4, 1 mg/ml Glucose, 20 mM HEPES (PH 7.2), 1.5 mM CaCl2), and left to stand at 37° C. for an hour and then at room temperature for 30 minutes to allow intake of the indicator. The above-mentioned 384-well plate was transferred to FLIPR (Molecular Devices) and added with 12.5 μl/well of a compound dissolved in a 0.1% BSA-containing assay buffer to measure 3-minute change in the fluorescence intensity.
The difference between maximum and minimum fluorescence intensities before and after compound addition (RFU (Max−Min)) was determined by FLIPR automatic calculation. An activity rate was calculated where RFU (Max−Min) upon addition of a compound at a maximum concentration was defined 100% and RFU (Max−Min) upon addition of DMSO as a substitute for the compound at the same concentration was defined 0%. The rate was subjected to curve fitting using spreadsheet software Xfit to determine EC50 value, i.e., a compound concentration upon 50% activity rate.

Where a name gives a salt, the structure may show the parent alone.

Take `N[C@@H](CSC(=O)Nc1cccc(S(=O)(=O)O)c1)C(=O)O` [Example 4, (2R)-2-amino-3-{[(3-sulfophenyl)carbamoyl]sulfanyl}propanoic acid]: the midpoint of the response, the EC50, lay at 40 nM.

In the case of `N#CCC[C@H](N)COC(=O)Nc1cc(Cl)cc(S(=O)(=O)O)c1O` [Example 12, 3-({[(2S)-2-amino-4-cyanobutoxy]carbonyl}amino)-5-chloro-2-hydroxybenzene-1-sulfonic acid], the EC50 amounted to 1100 nM.

Molecule `Cc1nnc([C@@H](N)CCC(=O)Nc2cc(Cl)cc(S(=O)(=O)O)c2O)o1` [Example 15, 3-[(4S)-4-amino-4-(5-methyl-1,3,4-oxadiazol-2-yl)butanamide]-5-chloro-2-hydroxybenzene-1-sulfonic acid] had an EC50 of 180 nM. Against the preceding molecule, the EC50 is about 6.1-fold lower.

As for `N[C@@H](CCC(=O)Nc1cc(Cl)cc(S(=O)(=O)O)c1O)c1nnc(Cc2ccccc2)o1` [Example 16, 3-[(4S)-4-amino-4-(5-benzyl-1,3,4-oxadiazol-2-yl)butanamide]-5-chloro-2-hydroxybenzene-1-sulfonic acid], the EC50 was determined as 880 nM.

On to `N[C@@H](CCC(=O)Nc1cc(Cl)cc(S(=O)(=O)O)c1O)C(=O)NNC(=O)Cc1ccccc1` [Example 17, 3-[(4S)-4-amino-5-oxo-5-(2-phenylacetohydrazide)pentanamide]-5-chloro-2-hydroxybenzene-1-sulfonic acid], for which a half-maximal effect (EC50) was put at 250 nM.

For the molecule `N[C@@H](CCC(=O)Nc1cc(Cl)cc(S(=O)(=O)O)c1O)C(=O)NCCc1cccc(Cl)c1` [Example 32, 3-[(4S)-4-amino-4-{[2-(3-chlorophenyl)ethyl]carbamoyl}butanamide]-5-chloro-2-hydroxybenzene-1-sulfonic acid], a half-maximal effect (EC50) was put at 1200 nM.

Turning to `CS(=O)(=O)NC(=O)[C@@H](N)CCC(=O)Nc1cc(Cl)cc(S(=O)(=O)O)c1O` [Example 34, 3-[(4S)-4-amino-4-(methanesulfonylcarbamoyl)butanamide]-5-chloro-2-hydroxybenzene-1-sulfonic acid], the concentration giving a half-maximal response (EC50) came out at 390 nM.

As to `N[C@@H](CCC(=O)Nc1cc(Cl)cc(S(=O)(=O)O)c1O)C(=O)NO` [Example 41, 3-[(4S)-4-amino-4-(hydroxycarbamoyl)butanamide]-5-chloro-2-hydroxybenzene-1-sulfonic acid], the response was half-maximal at 39 nM (EC50). This EC50 is about 10-fold lower than that of the molecule before.

`N[C@@H](CCC(=O)Nc1cccc(S(=O)(=O)O)n1)C(=O)O` [Example 42, (2S)-2-amino-4-[(6-sulfopyridine-2-yl)carbamoyl]butanoic acid trifluoroacetic acid salt] showed an EC50 of 13000 nM.

Turning to `C[C@H](OC(=O)Nc1cccc(S(=O)(=O)O)c1)[C@H](N)C(=O)O` [Example 43, (2S,3S)-2-amino-3-{[(3-sulfophenyl)carbamoyl]oxy}butanoic acid], the EC50 came to 7000 nM.

Molecule `Cc1c(Cl)cc(S(=O)(=O)O)cc1NC(=S)NC[C@H](N)C(=O)O` [Example 47, (2S)-2-amino-3-{[(3-chloro-2-methyl-5-sulfophenyl)carbamothioyl]amino}propanoic acid] gave an EC50 of 4 nM.

Turning to `N[C@@H](CCC(=O)Nc1cc(Cl)cc(S(=O)(=O)O)c1O)C(=O)NS(=O)(=O)c1ccccc1` [Example 62, 3-[(4S)-4-amino-4-[(benzenesulfonyl)carbamoyl]butanamide]-5-chloro-2-hydroxybenzene-1-sulfonic acid], the response was half-maximal at 2300 nM (EC50).

With `COC(=O)[C@@H](N)CNC(=O)Nc1cc(Cl)cc(S(=O)(=O)O)c1O` [Example 67, 3-({[(2S)-2-amino-3-methoxy-3-oxopropyl]carbamoyl}amino)-5-chloro-2-hydroxybenzene-1-sulfonic acid], the EC50 was found to be 3 nM. This EC50 is about 770-fold lower than that of the molecule before.

Molecule `CN(C)[C@@H](CCC(=O)Nc1cc(Cl)cc(S(=O)(=O)O)c1O)C(=O)O` [Example 76, (2S)-4-[(5-chloro-2-hydroxy-3-sulfophenyl)carbamoyl]-2-(dimethylamino)butanoic acid] yielded an EC50 of 1800 nM. This EC50 is about 600-fold higher than that of the molecule before.

In turn, `N[C@@H](CNC(=O)Nc1cccc(S(=O)(=O)O)c1)C(=O)O` [Example 77, (2S)-2-amino-3-{[(3-sulfophenyl)carbamoyl]amino}propanoic acid] displayed an EC50 of 18 nM.

Usually EC50 stands for the concentration needed to bring the measured effect to its halfway point.
